Drawing on ChEMBL document CHEMBL6078659, “Comprehensive Insights into the Development of Antitoxoplasmosis Drugs: Current Advances, Obstacles, and Future Perspectives” (J Med Chem, 2024), this text covers IC50 for 29 compounds.

Converted amounts (≈) assume the structure as drawn.

For orientation: IC50 means the midpoint of a concentration-inhibition curve.

Test system in one series: not listed separately
The series can be described thus: Cytotoxicity against African green monkey Vero cells by MTT assay. To be noted: African green monkey (Chlorocebus sabaeus). Format: toxicity, cell-based. For orientation: Tetrazolium assays rely on reduction of a dye to a coloured formazan, in cell work by metabolically active cells.
As for `Fc1ccc(-c2csc(N/N=C/C3CC3)n2)cc1`, inhibition was half-maximal at 18 µg/mL (IC50). Same read-out and setting: the same measure for `NC(=S)N/N=C(/COc1ccc(F)cc1)c1ccc(Cl)cc1`: 1.19 µM. As to `COc1ccc(/C(COc2ccc(F)cc2)=N\NC(N)=S)cc1`, half-maximal inhibition (IC50) was put at 1.09 µM.

`C/C(=N\Nc1nc(-c2ccc(Cl)c(Cl)c2)cs1)c1ccc(Nc2nc(N)nc(N)n2)cc1` gave an IC50 of 14.9 µg/mL.

Test system in a further series: not listed separately
The series can be described thus: Cytotoxicity against African green monkey Vero cells assessed as reduction in cell viability by MTT assay. Format: toxicity, cell-based. To be noted: African green monkey (Chlorocebus sabaeus).
`COC(=O)/C=C(\C)CCC=C(C)C`: the IC50 stood at 9 µg/mL (≈ 49.4 µM).

Take `CC(C)=CCC/C(C)=C/C=O` [CITRAL]: the IC50 was found to be 9 µg/mL (≈ 59.1 µM). `CC1=CC[C@H]2[C@H]3[C@@H]1[C@]2(C)CC[C@H]3C(C)C`: the half-inhibitory concentration (IC50) was 9.94 µg/mL (≈ 48.6 µM).

For `C=CCSSSCC=C` [ALLITRIDIN], the IC50 amounted to 28 µg/mL (≈ 157 µM). Turning to `C=CCSSSC`, the IC50 came to 66 µg/mL (≈ 433 µM).

Take `C=CCSSCC=C` [DIALLYLDISULFIDE]: the IC50 was found to be 66.9 µg/mL (≈ 457 µM).

The next series concerns the target T1, Bifunctional dihydrofolate reductase-thymidylate synthase (Toxoplasma gondii, UniProt Q07422).
T1 sequence (Q07422 whole entry): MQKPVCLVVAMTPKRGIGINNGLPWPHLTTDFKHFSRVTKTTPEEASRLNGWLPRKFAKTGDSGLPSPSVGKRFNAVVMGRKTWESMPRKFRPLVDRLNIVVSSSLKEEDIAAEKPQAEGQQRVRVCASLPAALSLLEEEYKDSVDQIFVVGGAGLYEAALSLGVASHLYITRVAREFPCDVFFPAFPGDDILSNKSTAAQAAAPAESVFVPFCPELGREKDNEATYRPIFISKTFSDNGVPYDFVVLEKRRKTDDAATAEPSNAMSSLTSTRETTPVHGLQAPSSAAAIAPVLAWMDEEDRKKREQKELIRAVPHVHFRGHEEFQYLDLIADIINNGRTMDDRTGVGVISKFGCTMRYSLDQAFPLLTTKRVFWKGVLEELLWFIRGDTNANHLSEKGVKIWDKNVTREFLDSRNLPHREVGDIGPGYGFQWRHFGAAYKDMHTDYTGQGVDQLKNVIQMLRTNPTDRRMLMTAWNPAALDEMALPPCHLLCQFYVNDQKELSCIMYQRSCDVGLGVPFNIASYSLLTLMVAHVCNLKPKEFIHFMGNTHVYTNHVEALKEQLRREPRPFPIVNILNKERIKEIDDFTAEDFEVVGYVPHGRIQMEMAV
The series can be described thus: Inhibition of Toxoplasma gondii thymidylate synthase.
Settings: not given
`C[C@H](NC(=O)OC(C)(C)C)C(=O)OC1O[C@@H]2O[C@@]3(C)CC[C@H]4[C@H](C)CC[C@@H]([C@H]1C)[C@@]24OO3` (some centres not stated) showed an IC50 of 41 µM. With `C[C@H]1[C@H](N2CCSCC2)O[C@@H]2O[C@@]3(C)CC[C@H]4[C@H](C)CC[C@@H]1[C@@]24OO3` [ARTEMISIDE], half-maximal inhibition (IC50) was put at 0.1 µM. In turn, `C[C@H]1[C@H](N2CCS(=O)(=O)CC2)O[C@@H]2O[C@@]3(C)CC[C@H]4[C@H](C)CC[C@@H]1[C@@]24OO3` [ARTEMIFONE] came in with an IC50 of 0.12 µM.

A further series concerns Toxoplasma gondii. The series can be described thus: Antiparasitic activity against Toxoplasma gondii RH tachyzoites infected in human HFF cells assessed as parasitic growth inhibition.
Settings: not given
In kind it is functional, organism-based.
As for `O=C1CCC[C@@H]2[C@H]3CCC[N+]4([O-])CCC[C@@H](CN12)[C@@H]34` (some centres not stated) [OXYMATRINE], the half-maximal inhibitory concentration (IC50) worked out at 843 µM. On to `O=C1CCC[C@@H]2[C@H]3CCCN4CCC[C@@H](CN12)[C@@H]34` [MATRINE], for which the IC50 was 1010 µM.

As to `O=c1c2ccc(Oc3ccc(OC(F)(F)F)cc3)cc2[nH]c2cc(Cl)cc(F)c12`, the IC50 was 0.03 µM.

For the compound `COc1ccc2c3ccnc(C)c3n(C)c2c1`, the IC50 stood at 1.8 µM.

As for `O=C1C=C2C=C[C@@H]3C[C@@]2(O1)[C@H]1CCCCN31` [SECURININE], the IC50 turned out to be 9.8 µM.

For `C=CCC1[C@H](O[Si](C)(C)C(C)(C)C)C[C@@H](C(=O)OC)N1C(=O)OC(C)(C)C` (some centres not stated), the IC50 was 3.9 µM. On to `CC(C)(C)[Si](C)(C)O[C@@H]1C[C@@H](/C=C\I)N2CCCC[C@]12C`, for which the IC50 was found to be 3.9 µM. Regarding `C=CCC1[C@H](O[Si](C)(C)C(C)(C)C)C[C@@H](C(=O)OC)N1CC=C` (some centres not stated), the IC50 came out at 5.6 µM.

A further series relates to Toxoplasma gondii. The experiment in a line: Antiparasitic activity against Toxoplasma gondii RH infected in human HFF cells assessed as reduction in parasitic growth. In kind it is functional, organism-based.
Settings: not given
`Cn1cc(-c2ccc3c(c2)CCN3C(=O)Cc2cccc(C(F)(F)F)c2)c2c(N)ncnc21`: the IC50 is below 1 µM. As to `N=C(N)N/N=C/c1c(Cl)cccc1Cl` [GUANABENZ], the IC50 turned out to be 6 µM.

The next series deals with Toxoplasma gondii. The series can be described thus: Antiparasitic activity against Toxoplasma gondii RH infected in human HFF cells.
Settings: not given
In kind it is functional, organism-based.
Consider `Fc1ccc(-c2csc(N/N=C/C3CC3)n2)cc1`, for which the IC50 stood at 18.1 µg/mL (≈ 69.2 µM).

Another series deals with Toxoplasma gondii. The experiment in a line: Antiparasitic activity against Toxoplasma gondii. Format: functional, organism-based.
Settings: not given
Consider `NC(=S)N/N=C(/COc1ccc(F)cc1)c1ccc(Cl)cc1`, for which the 50% inhibitory concentration (IC50) was 1.19 µM.

In turn, `COc1ccc(/C(COc2ccc(F)cc2)=N\NC(N)=S)cc1` registered an IC50 of 1.09 µM.

Test system in the next series: not listed separately
The series can be described thus: Inhibition of Toxoplasma gondii Farnesyl pyrophosphate synthase.
Settings: not given
Take `O=C(CCCCSc1nc(-c2ccc(-c3ccccc3)cc2)cc(=O)[nH]1)NO`: half-maximal inhibition (IC50) required 0.034 µM. As to `CCCCCCCCCCS(=O)(=O)CC(P(=O)(O)O)P(=O)(O)O`, the IC50 was determined as 0.11 µM. In turn, `COc1cccc(CC(=O)Nc2ccc(C(=O)NO)cc2)c1` displayed an IC50 of 0.56 µM. The same measure, in the same setting: as for `CCCCCCNCC(O)(P(=O)(O)O)P(=O)(O)O`, the figure is 4.7 µM; as for `CC[C@]1(C)NC(=O)[C@H](CCCCCC(=O)[C@@H](C)OC(=O)Oc2ccccc2)NC(=O)[C@H]2C[C@H](C)CN2C(=O)[C@H](Cc2ccccc2)NC1=O`, 0.0113 µM.

Take `CC[C@]1(C)NC(=O)[C@H](CCCCCC(=O)[C@@H](C)OC(C)=O)NC(=O)[C@H]2C[C@H](C)CN2C(=O)[C@H](Cc2ccccc2)NC1=O`: 0.0102 µM corresponded to half-maximal inhibition (IC50).
